These results are taken from PubChem BioAssay (NCI).

Test systems include HOP-62 NSCLC; SNB-75 CNS; K-562 leukemia; SW-620 colon; OVCAR-5 ovarian; NCI/ADR-RES ovarian; UACC-257 melanoma; A549 NSCLC; RPMI-8226 leukemia; NCI-H23 lung.
Test in all cases: DTP human tumour cell line panel, 48 h

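Assay format: 96-well plates, 48-hour exposure. At the GI50, growth is halved. TGI: total growth inhibition.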

A word on the TGI: it is the concentration at which net growth stops. Low readings indicate more potent growth arrest, high ones less potent growth arrest. On to `N#C/C(=C\c1cc(O)c(O)c(O)c1)C(N)=O`, for which the TGI in the assay on HOP-62 NSCLC, with SNB-75 CNS, with K-562 leukemia, in the assay on SW-620 colon, in the assay on OVCAR-5 ovarian and in the assay with NCI/ADR-RES ovarian was more than 100 µM each time. In addition, the TGI with UACC-257 melanoma, in the assay on A549 NSCLC, in the assay with RPMI-8226 leukemia and in the assay with NCI-H23 lung was more than 100 µM throughout.
What is called GI50 is the concentration at which growth is held to half of that of the control. `CN1CCN(CCCNC(=O)c2c3c(n4ccccc24)C(=O)c2ncccc2C3=O)CC1`: the GI50 in the assay with HOP-62 NSCLC was 0.966 µM; with SNB-75 CNS, 3.92 µM; in the assay with K-562 leukemia, 1.39 µM; in the assay on SW-620 colon it was 0.578 µM; with OVCAR-5 ovarian it was 2.42 µM; in the assay on NCI/ADR-RES ovarian it was 12 µM. For the same molecule, the GI50 with UACC-257 melanoma was 0.971 µM; in the assay on A549 NSCLC it was 1.26 µM; in the assay with RPMI-8226 leukemia, 3.02 µM; in the assay with NCI-H23 lung, 0.674 µM. Besides, the TGI in the assay with HOP-62 NSCLC is 13.5 µM; in the assay on SNB-75 CNS, 16.3 µM; with K-562 leukemia, more than 32.4 µM; in the assay on SW-620 colon it was 9.49 µM; in the assay with OVCAR-5 ovarian, more than 53.2 µM; with NCI/ADR-RES ovarian it was 64.6 µM. Also, the TGI in the assay on UACC-257 melanoma was 2.3 µM; with A549 NSCLC it was 5.48 µM; in the assay with RPMI-8226 leukemia, more than 24.4 µM; in the assay with NCI-H23 lung it was 3.08 µM.
As for `C/C=C(\N=C=S)C(=O)OC1C(COC(C)=O)OC([C@]2(O)CC(=O)C(=N)C(C(=O)O)=C2O)C(O)C1OC1CC(OC)C(O)([C@@H](C)OC(=O)[C@@H](C)CC)C(C)O1` (stereo not given in full), the TGI in the assay on HOP-62 NSCLC was 45.7 µM; in the assay with SNB-75 CNS it was 34.8 µM; in the assay with K-562 leukemia, 14.6 µM; in the assay with SW-620 colon, 8.33 µM; with OVCAR-5 ovarian, 40.4 µM; in the assay with NCI/ADR-RES ovarian, more than 100 µM. The TGI is 29.9 µM with UACC-257 melanoma, more than 80.6 µM with A549 NSCLC, 7.19 µM with RPMI-8226 leukemia and 23.9 µM in the assay on NCI-H23 lung.
On to `Nc1ccccc1C#C/C=C\C#Cc1ccccc1C#CCO`, for which the GI50 was 8.35 µM with HOP-62 NSCLC; 18 µM in the assay on SNB-75 CNS; 11.1 µM with K-562 leukemia; 4.4 µM in the assay with SW-620 colon; 16.8 µM in the assay with OVCAR-5 ovarian; 6.17 µM in the assay on NCI/ADR-RES ovarian. For the same molecule, the GI50 with UACC-257 melanoma was 11.4 µM; in the assay with A549 NSCLC, 11.2 µM; with RPMI-8226 leukemia, 24.3 µM; with NCI-H23 lung, 1.83 µM. The TGI with HOP-62 NSCLC was more than 50 µM; in the assay on SNB-75 CNS, 42.1 µM; with K-562 leukemia, more than 50 µM; with SW-620 colon, 35.8 µM; in the assay with OVCAR-5 ovarian it was more than 50 µM; in the assay with NCI/ADR-RES ovarian, 21.4 µM. For the same molecule, the TGI in the assay on UACC-257 melanoma is 45.2 µM; in the assay on A549 NSCLC, more than 50 µM; in the assay with RPMI-8226 leukemia, more than 50 µM; with NCI-H23 lung, 6.9 µM.
As for `COC(=O)[C@]12CC[C@@H](C)[C@H](C)[C@@H]1C1=CC[C@@H]3[C@@]4(C)C(C=O)=C[C@@](C)(CO)[C@@H]4[C@H](O)C[C@@]3(C)[C@]1(C)CC2`, the GI50 is 13.8 µM with HOP-62 NSCLC; 2.72 µM with SNB-75 CNS; 3.86 µM in the assay with K-562 leukemia; 4.23 µM in the assay on SW-620 colon; 3.47 µM in the assay on OVCAR-5 ovarian; 4.12 µM in the assay on NCI/ADR-RES ovarian. For the same molecule, the GI50 with UACC-257 melanoma was 3.11 µM; in the assay with A549 NSCLC, 4.15 µM; with RPMI-8226 leukemia it was 2.44 µM; in the assay with NCI-H23 lung, 2.97 µM. Also, the TGI in the assay with HOP-62 NSCLC amounted to 29.6 µM; with SNB-75 CNS it was 19.3 µM; in the assay on K-562 leukemia it was 15.5 µM; with SW-620 colon, 15.8 µM; in the assay on OVCAR-5 ovarian it was 17.9 µM; in the assay with NCI/ADR-RES ovarian, 34.6 µM. Also, the TGI was found to be 13.1 µM in the assay on UACC-257 melanoma, 14.6 µM in the assay on A549 NSCLC, 7.74 µM in the assay on RPMI-8226 leukemia and 12.2 µM in the assay on NCI-H23 lung.
As for `O=C1C=C(NCCO)c2nccc3c2c1nc1ccccc13`, the GI50 was 12.3 µM in the assay with HOP-62 NSCLC; 49.7 µM with SNB-75 CNS; 31.5 µM in the assay with K-562 leukemia; 15.5 µM in the assay on SW-620 colon; 28.6 µM in the assay with OVCAR-5 ovarian; 32 µM in the assay with NCI/ADR-RES ovarian. For the same molecule, the GI50 in the assay on UACC-257 melanoma is 32.2 µM; in the assay on A549 NSCLC, 16.4 µM; with RPMI-8226 leukemia, 24.7 µM; in the assay on NCI-H23 lung, 19.1 µM. Also, the TGI in the assay with HOP-62 NSCLC was 57.8 µM; with SNB-75 CNS, more than 100 µM; in the assay on K-562 leukemia, more than 100 µM; in the assay on SW-620 colon, more than 100 µM; in the assay with OVCAR-5 ovarian it was more than 100 µM; in the assay with NCI/ADR-RES ovarian it was more than 100 µM. The TGI with UACC-257 melanoma is more than 100 µM; with A549 NSCLC it was more than 100 µM; with RPMI-8226 leukemia, more than 100 µM; in the assay on NCI-H23 lung, 67.3 µM.
For the molecule `C=C1c2nc3ccccc3n2C=C(c2cccc(Cl)c2)N1Cc1ccc(OC)cc1`, the GI50 in the assay with HOP-62 NSCLC is 2.35 µM; in the assay with SNB-75 CNS, 0.452 µM; in the assay with K-562 leukemia, 0.29 µM; in the assay with SW-620 colon it was 0.441 µM; in the assay on OVCAR-5 ovarian, 5.84 µM; in the assay on NCI/ADR-RES ovarian, 0.441 µM. Besides, the GI50 is 5.64 µM in the assay on UACC-257 melanoma, 3.98 µM in the assay with A549 NSCLC, 0.361 µM with RPMI-8226 leukemia and 0.77 µM in the assay with NCI-H23 lung. Besides, the TGI was 39.8 µM in the assay on HOP-62 NSCLC; more than 100 µM in the assay on SNB-75 CNS; 5.25 µM in the assay on K-562 leukemia; more than 78.2 µM in the assay on SW-620 colon; more than 30.9 µM in the assay with OVCAR-5 ovarian; 5.49 µM in the assay on NCI/ADR-RES ovarian. Moreover, the TGI with UACC-257 melanoma was more than 100 µM; with A549 NSCLC, more than 100 µM; in the assay on RPMI-8226 leukemia, 5.75 µM; with NCI-H23 lung, more than 35.7 µM.
For `C=CCn1c2ccccc2c2c3c(c4c5ccccc5n(CC=C)c4c21)C(=O)N(O)C3=O`, the GI50 was 2.49 µM in the assay with HOP-62 NSCLC; 3.55 µM in the assay on SNB-75 CNS; 3.89 µM in the assay on K-562 leukemia; 4.42 µM in the assay with SW-620 colon; 5.29 µM in the assay with OVCAR-5 ovarian; 3.43 µM with NCI/ADR-RES ovarian. For the same molecule, the GI50 is 13.5 µM with UACC-257 melanoma, 4.47 µM with A549 NSCLC, 2.51 µM with RPMI-8226 leukemia and 3.03 µM with NCI-H23 lung. For the same molecule, the TGI worked out at 12.7 µM with HOP-62 NSCLC; 24.2 µM in the assay on SNB-75 CNS; 50 µM in the assay on K-562 leukemia; 29.5 µM with SW-620 colon; 29.6 µM with OVCAR-5 ovarian; 21.9 µM with NCI/ADR-RES ovarian. For the same molecule, the TGI came to 54.6 µM in the assay with UACC-257 melanoma, 55.4 µM in the assay with A549 NSCLC, 10.6 µM with RPMI-8226 leukemia and 22.2 µM with NCI-H23 lung.
